Data taken from patent US20220380371A1, “MLL1 INHIBITORS AND ANTI-CANCER AGENTS” (NOVARTIS AG, priority 2019, published 2022).
Read-outs that look alike come from different tables or passages of the source.

Key:
H3K4me3 in MV4-11 cells = experiment: MV4-11 H3K4me3 Cellular ELISA Assay; type: cell-based; conditions: Homo sapiens, MV4-11, 48 h
Description: MV4-11 H3K4me3 Cellular ELISA Assay
MV4-11 (ATCC® CRL-9591™) was cultured with RPMI1640 medium (Thermo Fisher Scientific, cat #11875) supplemented with 10% FBS (Thermo Fisher Scientific, cat #10099141) and 50 U/ml Penicillin-Streptomycin (Thermo Fisher Scientific, cat #10378016) in humidified incubator at 37° C., 5% CO2.
200 nL compounds dissolved in DMSO were serially diluted at 1:3 ratio for 12 points starting from 10 mM and dispensed into each wells of cell culture plates (PDL-coated ViewPlate-384 Black, FTC, PerkinElmer, #6007710). 3,750 MV4-11 cells in 40 μL culture medium were seeded into each well and treated with desired concentration for 48 hours. After treatment, wash cells with cold phosphate based buffer (PBS, pH 7.4) and aspirate the remaining PBS buffer. Crude histone lysate was extracted by 40 μL 0.5M HCl for 1 hour in 4° C. following neutralization by adding 32 μL neutralization buffer (0.5M Sodium phosphate dibasic, pH ˜12.5, 1.25 mM Dithiothreitol, Promega #V3151, Protease Inhibitor Cocktail, Sigma #8340) for each well. 5 μL and 20 μL of histone lysate was loaded to ELISA plate (384 Well Plates, PE HB, White, 6005620) for detection of total H3 and H3K4me3, respectively. Shake the plates gently in 4° C. for overnight. After histone binding, plates were washed with 80 μL PBS/T (PBS with 0.05% Tween-20) and blocked with 50 μL 3% BSA diluted in PBS/T per well for 1 hour. Incubate wells with primary antibody for 1 hour at room temperature using anti-H3K4me3 (CST #9727) and anti-total H3 (CST #9715) diluted 1:2000 in 3% BSA. Plates were then washed with PBS/T for 3 times and incubated with horseradish peroxidase (HRP) conjugated secondary antibody (CST #7074, 1:5000) for 1 hour at room temperature. The abundance of H3K4me3 and total H3 were measured by ECL substrates chemiluminescence (Pierce, #34080) on a plate reader (PerkinElmer EnVison 2104 Mutilable Reader). Percentage inhibition was calculated against DMSO control after normalization of H3K4me3 signal to H3 signal for individual samples. The data were then fit to a dose response curve using GraphPad Prism for IC50 calculation.

[1] = target: wild type MLL1 four-member complex (MLL1-4C) (Homo sapiens, UniProt Q03164); experiment: MLL1 LC-MS Assay; type: biochemical
Description: The compounds of the present disclosure were serially and separately diluted 3-fold in DMSO to obtain a total of eight or twelve concentrations. Then the test compounds at each concentration (120 nL of each) were transferred by Mosquito into white Proxiplate plus 384-well microplate (PerkinElmer). Solutions (6 μL) of 60 nM wild type MLL1 four-member complex (MLL1-4C) and 5 μM SAM in the reaction buffer (20 mM Tris-HCl, pH 8.0, 0.01% Tween 20, 1 mM DTT, 10 mM MgCl2, 0.01% BSA) were added to the wells that were then incubated with the test compound for 20 min. A 6 μL solution of 20 μM of the peptide substrate H3K4me0 (histone H3[1-21]-Biotin) in the reaction buffer was added to initiate each reaction. The final components in the reaction solution include 30 nM MLL1-4C, 2.5 μM SAM, and 10 μM H3K4me0 with varying concentration of the compounds. A positive control consisted of 30 nM MLL1-4C, 2.5 μM SAM, and 10 μM substrate in the absence of the test compound, and a negative control consisted of 2.5 μM SAM, and 10 μM substrate only. Each reaction was incubated at rt for 120 min, then stopped by addition of 3 μL per of quench solution (2.5% TFA with 320 nM d4-SAH). The reaction mixture was centrifuged (Eppendorf centrifuge 5810, Rotor A-4-62) for 2 min at 2000 rpm. The SAH production from the enzymatic assays were monitored by LC-MS/MS on an API 4000 triple quadrupole mass spec with Turbolon Spray (Applied Biosystem) coupled with Prominenece UFLC (Shimazu). The level of SAH production were then normalized based on the values coming from the positive and negative controls to give percent enzyme activities. The data were then fit to a dose response equation using the program Helios (Novartis) to get the IC50 values of the test compounds.

MV4-11 cells = experiment: MV4-11 6-Day Cell Growth CTG (CellTiter-Glo) Assay; type: cell-based; conditions: Homo sapiens, MV4-11, 144 h, MV4-11 cell growth CellTiter-Glo, 6 days
Description: MV4-11 6-Day Cell Growth CTG (CellTiter-Glo) Assay
Acute myeloid leukemia cell MV4-11 (ATCC® CRL-9591™) was cultured with RPMI 1640 medium (Thermo Fisher Scientific, cat #11875) supplemented with 10% FBS (Thermo Fisher Scientific, cat #10099141) in humidified incubator at 37° C., 5% CO2. To assess the effect of MLL1 inhibition on cell growth, the compound of the present invention was dissolved in DMSO and serially diluted at 1:3 for 12 points starting from 10 mM then 200 nL for the replicate of each dose per well was dispensed to Viewplate-384 Black (Perkin Elmer). Exponentially growing MV4-11 cells were seeded at the density of 300 cells per well in 40 μL to the plate, so the final compound working concentration starts from 50 μM. After 6 days, 40 μL CellTiter-Glo (Promega, cat #G7573) was added into the cell culture well and luminescence was read with Envision (Perkin Elmer) to determine the viable cells. The percentage inhibition was calculated against the samples treated with DMSO only and the data were used for dose response curve fitting in GraphPad Prism to get the IC50 of representative compound of present invention, which reflects the inhibition of MLL1 activity.

SMILES	IC50 (H3K4me3 in MV4-11 cells)	IC50 ([1]; read-out: LCMS)	IC50 (MV4-11 cells)	IC50 ([1]; read-out: MLL1 LCMS)
CCNC(=O)CC[C@@]1(N)CCN(c2cc(Cl)cc(Br)c2Cn2cnc3c(N)ncnc32)C1 (single isomer, unassigned) [Example 36]	> 3000 nM	50 to 100 nM	–	–
C#Cc1c(F)ccc(N2CC[C@](N)(C(=O)NC3CC3)C2)c1Cn1cnc2c(N)ncnc21 [Example 5]	< 1900 nM	50 to 100 nM	< 2000 nM	–
Nc1ncnc2c1ncn2Cc1c(N2CC[C@](N)(C(=O)NC3CC3)C2)ccc(F)c1CC(F)(F)F [Example 6]	< 1900 nM	< 50 nM	< 2000 nM	–
Nc1ncnc2c1ncn2Cc1c(CC(F)(F)F)cc(Cl)cc1N1CC[C@](N)(C(=O)NC2CC2)C1 [Example 7]	< 1900 nM	50 to 100 nM	> 3000 nM	–
Nc1ncnc2c1ncn2Cc1c(N2CC[C@](N)(C(=O)NC3CC3)C2)ccc(F)c1C1CC1 [Example 8]	< 1900 nM	50 to 100 nM	< 2000 nM	–
C=Cc1c(F)ccc(N2CCC(N)(C(=O)NC3CC3)C2)c1Cn1cnc2c(N)ncnc21 (stereo not shown) [Example 9]	< 1900 nM	> 100 nM	< 2000 nM	–
CCc1c(F)ccc(N2CC[C@](N)(C(=O)NC3CC3)C2)c1Cn1cnc2c(N)ncnc21 [Example 10]	< 1900 nM	< 50 nM	< 2000 nM	–
Cc1c(C(F)(F)F)ccc(N2CC[C@](N)(C(=O)NC3CC3)C2)c1Cn1cnc2c(N)ncnc21 [Example 11]	< 1900 nM	< 50 nM	< 2000 nM	–
CCc1c(C(F)(F)F)ccc(N2CC[C@](N)(C(=O)NC3CC3)C2)c1Cn1cnc2c(N)ncnc21 [Example 12]	< 1900 nM	50 to 100 nM	< 2000 nM	–
Nc1ncnc2c1ncn2Cc1c(N2CC[C@](N)(C(=O)NC3CC3)C2)ccc(F)c1Br [Example 13]	< 1900 nM	< 50 nM	< 2000 nM	–
COc1ccc(Br)c(Cn2cnc3c(N)ncnc32)c1N1CC[C@](N)(C(=O)NC2CC2)C1 [Example 21]	> 3000 nM	50 to 100 nM	–	–
C=Cc1cc(Cl)cc(N2CC[C@](N)(c3nc[nH]n3)C2)c1Cn1cnc2c(N)ncnc21 [Example 24]	< 1900 nM	< 50 nM	< 2000 nM	–
CCc1cc(Cl)cc(N2CC[C@](N)(c3nc[nH]n3)C2)c1Cn1cnc2c(N)ncnc21 [Example 25]	< 1900 nM	< 50 nM	< 2000 nM	–
Nc1ncnc2c1ncn2Cc1c(N2CC[C@](N)(c3ccccc3)C2)ccc(F)c1C(F)(F)F [Example 26]	1900 to 3000 nM	50 to 100 nM	2000 to 3000 nM	–
Nc1ncnc2c1ncn2Cc1c(Br)cc(Cl)cc1N1CC[C@](N)(c2cc(C(F)(F)F)ccn2)C1 [Example 27]	> 3000 nM	< 50 nM	–	–
COC(=O)[C@@]1(N)CCN(c2cc(Cl)cc(C3CCC3)c2Cn2cnc3c(N)ncnc32)C1 [Example 29]	< 1900 nM	< 50 nM	< 2000 nM	–
Nc1ncnc2c1ncn2Cc1c(Br)cc(Cl)cc1N1CC[C@](N)(COCC(=O)NC2CC2)C1 [Example 30]	> 3000 nM	> 100 nM	–	–
CCOC(=O)CC[C@@]1(N)CCN(c2cc(Cl)cc(Br)c2Cn2cnc3c(N)ncnc32)C1 [Example 34]	< 1900 nM	> 100 nM	–	–
CCc1cc(Cl)cc(N2CC[C@](N)(CCc3nnc(NC)s3)C2)c1Cn1cnc2c(N)ncnc21 [Example 35]	> 3000 nM	50 to 100 nM	–	–

Next, values leading:

IC50 (H3K4me3 in MV4-11 cells)	IC50 ([1]; read-out: LCMS)	IC50 (MV4-11 cells)	IC50 ([1]; read-out: MLL1 LCMS)	SMILES
> 3000 nM	< 50 nM	–	–	Nc1ncnc2c1ncn2Cc1c(Br)cc(Cl)cc1N1CC[C@](N)(CCc2nn[nH]n2)C1 (single isomer, unassigned) [Example 39]
< 1900 nM	> 100 nM	2000 to 3000 nM	–	Nc1ncnc2c1ncn2Cc1c(N2CC[C@](N)(C(=O)NC3CC3)C2)ccc(F)c1C(O)C(F)(F)F (single isomer, unassigned) [Example 82]
< 1900 nM	50 to 100 nM	2000 to 3000 nM	–	Nc1ncnc2c1ncn2Cc1c(Br)c(Cl)c2c(c1N1CC[C@](N)(C(=O)NC3CC3)C1)CCC2 (stereo in doubt) [Example 42]
> 3000 nM	< 50 nM	< 2000 nM	–	Nc1ncnc2c1ncn2Cc1c(N2CC[C@](N)(C(=O)NC3CC3)C2)ccc(Cl)c1C1CC1 (stereo in doubt) [Example 97]
> 3000 nM	> 100 nM	–	–	NC(=O)CCC1(N)CCN(c2cc(Cl)cc(Br)c2Cn2cnc3c(N)ncnc32)C1 (stereo not shown) [Example 37]
> 3000 nM	< 50 nM	–	–	CCNC(=O)CC[C@@]1(N)CCN(c2cc(Cl)cc(CC)c2Cn2cnc3c(N)ncnc32)C1 [Example 38]
> 3000 nM	> 100 nM	–	–	CCc1cc(Cl)cc(N2CC[C@](N)(CCc3nn[nH]n3)C2)c1Cn1cnc2c(N)ncnc21 [Example 40]
> 3000 nM	< 50 nM	–	–	COC(=O)NCc1c(F)ccc(N2CC[C@](N)(C(=O)NC3CC3)C2)c1Cn1cnc2c(N)ncnc21 [Example 71]
> 3000 nM	> 100 nM	–	–	CN(C)Cc1c(Cl)cc(Cl)c(N2CC[C@](N)(C(=O)NC3CC3)C2)c1Cn1cnc2c(N)ncnc21 [Example 74]
> 3000 nM	> 100 nM	–	–	CN(C)Cc1cc(Cl)c(Cl)c(N2CC[C@](N)(C(=O)NC3CC3)C2)c1Cn1cnc2c(N)ncnc21 [Example 89, (R)-3-amino-1-(2-((6-amino-9H-purin-9-yl)methyl)-5,6-dichloro-3-((dimethylamino)methyl)phenyl)-N-cyclopropylpyrrolidine-3-carboxamide]
> 3000 nM	50 to 100 nM	–	–	Cn1nnc([C@@]2(N)CCN(c3cc(Cl)cc(Br)c3Cn3cnc4c(N)ncnc43)C2)n1 [Example 91, (R)-9-(2-(3-amino-3-(2-methyl-2H-tetrazol-5-yl)pyrrolidin-1-yl)-6-bromo-4-chlorobenzyl)-9H-purin-6-amine]
> 3000 nM	–	–	> 100 nM	Cc1ccc(Cl)c(Cn2cnc3c(N)ncnc32)c1N1CCC(N)(C(=O)NC2CC2)C1 (stereo not shown) [Example 157]
< 1900 nM	–	–	50 to 100 nM	Nc1ncnc2c1ncn2Cc1c(N2CC[C@@](N)(C(=O)NC3CC3)C2)ccc2ccccc12 [Example 166]
< 1900 nM	–	–	< 50 nM	Nc1ncnc2c1ncn2Cc1c(N2CC[C@](N)(C(=O)NC3CC3)C2)ccc2cc(Br)ccc12 [Example 167]
